We go through 13 molecules from ChEMBL document CHEMBL1201862, “PubChem BioAssay data set” (2004).

Among the test systems are ACHN; CCRF-CEM; DU-145; HCC 2998; HCT-15; HT-29; K562; MDA-MB-231; Malme-3M; NCI-H460; OVCAR-5; OVCAR-8; SNB-19; SNB-75; UACC-257; UACC-62; SK-MEL-5.
Common to all, as to test: DTP human tumour cell line panel, 48 h

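Briefly, cells in 96-well plates were exposed to five compound concentrations for 48 h, and endpoints were estimated by linear interpolation. GI50 = concentration required for 50% inhibition of growth.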 The source made the active and inactive calls. Cut-off read from the data, not from the text of the source: active = GI50 up to about 1.1 µM and inactive = higher. Residues, ends and D or L forms follow the SMILES beside them. Where only a bound is given, the exact number is not on record here.

The GI50 is the concentration giving 50% growth inhibition. With `Cc1nc2ccc(S(=O)(=O)Nc3ccccc3Cl)cc2c(=O)n1NC(=O)CNc1ccccc1Cl`, the GI50 in the experiment on ACHN is > 100 µM (inactive); with CCRF-CEM, > 100 µM (inactive); with DU-145, > 100 µM (inactive); with HCC 2998 it was > 100 µM (inactive); in the experiment on HCT-15, more than 100 µM; in the experiment with HT-29 it was > 100 µM (inactive). Besides, the GI50 in the experiment with K562, with MDA-MB-231, with Malme-3M, in the experiment on NCI-H460, in the experiment with OVCAR-5 and with OVCAR-8 was > 100 µM (inactive) throughout. Moreover, the GI50 with SNB-19, with SNB-75, with UACC-257 and in the experiment with UACC-62 was > 100 µM (inactive) in each case.

Consider `CCOC(=O)CCC(NC(=O)c1ccc(CNc2nc3cc(N)cc(N)c3nc2-c2ccccc2)cc1)C(=O)OCC` (centres undefined), for which the GI50 in the experiment on ACHN was > 100 µM (inactive); in the experiment on DU-145 it was > 89.3 µM (inactive); with HCC 2998, > 100 µM (inactive); in the experiment on HCT-15, more than 69.5 µM; with HT-29 it was > 100 µM (inactive); with K562, 15.3 µM (inactive). In addition, the GI50 in the experiment with MDA-MB-231 is 22.3 µM (inactive); in the experiment on Malme-3M, 18.3 µM (inactive); in the experiment on NCI-H460, 34 µM (inactive); in the experiment with OVCAR-5, > 100 µM (inactive); in the experiment on OVCAR-8 it was > 100 µM (inactive); in the experiment with SK-MEL-5, > 83 µM (inactive). Further, the GI50 is > 100 µM (inactive) in the experiment on SNB-19, > 100 µM (inactive) in the experiment on SNB-75, 19 µM (inactive) with UACC-257 and > 86.3 µM (inactive) in the experiment with UACC-62.

As for `COc1ccc2nc3cc([N+](=O)[O-])ccc3c(Nc3ccc(S(=O)(=O)N=C(N)N)cc3)c2c1`, the GI50 in the experiment with ACHN was 40.9 µM (inactive); with CCRF-CEM, 11 µM (inactive); with DU-145 it was 28.8 µM (inactive); in the experiment with HCC 2998, 19 µM (inactive); in the experiment with HCT-15 it was 36.2 µM; in the experiment on HT-29, 22.1 µM (inactive). Moreover, the GI50 was 18.3 µM (inactive) in the experiment on K562; 17.2 µM (inactive) with MDA-MB-231; 14 µM (inactive) in the experiment on Malme-3M; 9.82 µM (inactive) in the experiment on NCI-H460; > 100 µM (inactive) with OVCAR-5; 15.7 µM (inactive) in the experiment on SK-MEL-5. Also, the GI50 in the experiment on SNB-19 is 43.6 µM (inactive); with UACC-257 it was 51.2 µM (inactive); in the experiment on UACC-62, 14.6 µM (inactive).

Turning to `COc1ccc(C(OCC2OC3(COC(c4ccccc4)(c4ccc(OC)cc4)c4ccc(OC)cc4)C(Oc4nc(=O)ccn43)C2O)(c2ccccc2)c2ccc(OC)cc2)cc1` (centres undefined), the GI50 with ACHN is > 100 µM (inactive); in the experiment on CCRF-CEM it was > 100 µM (inactive); with DU-145, > 100 µM (inactive); in the experiment on HCT-15, more than 100 µM; in the experiment on HT-29, > 100 µM (inactive); in the experiment with K562 it was > 100 µM (inactive). In addition, the GI50 in the experiment with MDA-MB-231 is > 100 µM (inactive); with Malme-3M it was > 100 µM (inactive); with OVCAR-5, > 100 µM (inactive); in the experiment with OVCAR-8, > 100 µM (inactive); in the experiment on SK-MEL-5, > 100 µM (inactive); in the experiment on SNB-19, 88.9 µM (inactive). The GI50 with UACC-257 and in the experiment on UACC-62 was > 100 µM (inactive) each time.

Take `O=C1C[C@@]23CCC4(CC2=CCC[C@H]3O1)OCCO4`: the GI50 was > 100 µM (inactive) in the experiment with ACHN; > 100 µM (inactive) in the experiment on DU-145; > 100 µM (inactive) in the experiment on HCC 2998; more than 100 µM in the experiment on HCT-15; > 100 µM (inactive) in the experiment with HT-29; > 100 µM (inactive) with K562. In addition, the GI50 in the experiment with MDA-MB-231, in the experiment with Malme-3M, with NCI-H460, in the experiment on OVCAR-5, in the experiment with SK-MEL-5 and in the experiment on SNB-19 was > 100 µM (inactive) throughout. In addition, the GI50 in the experiment on UACC-257 and in the experiment on UACC-62 was > 100 µM (inactive) in each case.

As to `Cc1cn(C2CC(n3cc(Cn4cc(F)c(=O)[nH]c4=O)nn3)C(CO)O2)c(=O)[nH]c1=O` (centres undefined), the GI50 is > 100 µM (inactive) with ACHN; > 100 µM (inactive) in the experiment with CCRF-CEM; > 100 µM (inactive) in the experiment on DU-145; > 100 µM (inactive) in the experiment with HCC 2998; more than 100 µM with HCT-15; > 100 µM (inactive) with MDA-MB-231. Moreover, the GI50 in the experiment with Malme-3M, in the experiment on OVCAR-5, with OVCAR-8, with SK-MEL-5, in the experiment on SNB-19 and with SNB-75 was > 100 µM (inactive) throughout. For the same molecule, the GI50 in the experiment with UACC-257 and in the experiment with UACC-62 was > 100 µM (inactive) in each case.

For `OC(CCN1CCCCC1)(c1ccccc1)c1ccccc1` [PRIDINOL], the GI50 in the experiment on ACHN was > 100 µM (inactive); in the experiment on CCRF-CEM, > 100 µM (inactive); in the experiment on DU-145, > 100 µM (inactive); in the experiment with HCT-15 it was more than 100 µM; in the experiment with HT-29, 55 µM (inactive); in the experiment on K562, > 100 µM (inactive). Moreover, the GI50 is > 100 µM (inactive) in the experiment with MDA-MB-231; > 100 µM (inactive) in the experiment with Malme-3M; > 100 µM (inactive) in the experiment with OVCAR-5; > 100 µM (inactive) in the experiment with OVCAR-8; 82.8 µM (inactive) in the experiment with SK-MEL-5; > 100 µM (inactive) with SNB-19. Moreover, the GI50 in the experiment on UACC-62 was > 100 µM (inactive).

Consider `CC(CC(C)[C@H]1CCC2[C@H]3C(CC(=O)[C@@]21C)[C@@]1(C)CCC(O)C[C@H]1C[C@@H]3O)C(=O)O` (some centres undefined), for which the GI50 with ACHN is > 100 µM (inactive); with CCRF-CEM it was 43.4 µM (inactive); with DU-145 it was > 100 µM (inactive); in the experiment with HCC 2998 it was > 100 µM (inactive); in the experiment with HCT-15 it was 77.3 µM; in the experiment with HT-29, > 100 µM (inactive). Further, the GI50 in the experiment with K562 was 34.7 µM (inactive); with MDA-MB-231, > 100 µM (inactive); in the experiment with Malme-3M, > 100 µM (inactive); in the experiment with NCI-H460, 61.8 µM (inactive); in the experiment on OVCAR-5 it was > 100 µM (inactive); with OVCAR-8, > 100 µM (inactive). Besides, the GI50 in the experiment on SNB-19, in the experiment with SNB-75, in the experiment with UACC-257 and with UACC-62 was > 100 µM (inactive) in each case.

For the molecule `Cc1nc(O)nc2nc3cc(Cl)cc(Cl)c3c(NC(C)(CO)CO)c12`, the GI50 was 50.5 µM (inactive) in the experiment with ACHN; > 100 µM (inactive) with CCRF-CEM; 29.2 µM (inactive) with DU-145; > 100 µM (inactive) in the experiment with HCC 2998; more than 100 µM with HCT-15; > 100 µM (inactive) with HT-29. Also, the GI50 is > 100 µM (inactive) with K562; 14.7 µM (inactive) with MDA-MB-231; > 100 µM (inactive) in the experiment on Malme-3M; > 100 µM (inactive) in the experiment with NCI-H460; 75.2 µM (inactive) in the experiment with OVCAR-8; > 100 µM (inactive) in the experiment with SK-MEL-5. Moreover, the GI50 is 21.4 µM (inactive) in the experiment on SNB-19, 11.4 µM (inactive) with SNB-75, > 100 µM (inactive) with UACC-257 and 72.3 µM (inactive) with UACC-62.

In the case of `CS[C@]12[C@@H]3C(=O)N(C)C(=O)[C@@H]3[C@](C)(C(=O)N1C)C(=O)N2c1ccccc1`, the GI50 in the experiment on ACHN is > 100 µM (inactive); in the experiment with CCRF-CEM, > 100 µM (inactive); in the experiment on DU-145, > 100 µM (inactive); in the experiment on HCC 2998, > 100 µM (inactive); in the experiment with HCT-15, more than 100 µM; in the experiment with HT-29 it was > 100 µM (inactive). Besides, the GI50 in the experiment with MDA-MB-231, in the experiment with Malme-3M, in the experiment on OVCAR-5, with OVCAR-8, in the experiment with SK-MEL-5 and with SNB-19 was > 100 µM (inactive) in each case. For the same molecule, the GI50 with SNB-75, with UACC-257 and with UACC-62 was > 100 µM (inactive) in each case.

On to `CCOC(=O)C#Cc1ccccc1`, for which the GI50 in the experiment on ACHN is 14.6 µM (inactive); in the experiment on CCRF-CEM it was 2.94 µM (inactive); with DU-145 it was 25.8 µM (inactive); in the experiment with HCC 2998 it was 12.2 µM (inactive); in the experiment with HCT-15, 8.09 µM; in the experiment on HT-29 it was 7.24 µM (inactive). In addition, the GI50 in the experiment on K562 was 2.14 µM (inactive); with MDA-MB-231, 16.4 µM (inactive); in the experiment with Malme-3M, 13.1 µM (inactive); in the experiment with NCI-H460 it was 60 µM (inactive); with OVCAR-5 it was 5.08 µM (inactive); in the experiment with OVCAR-8, 8.75 µM (inactive). Moreover, the GI50 in the experiment on SK-MEL-5 was 3.72 µM (inactive); with SNB-19, 14.8 µM (inactive); in the experiment on UACC-257 it was 33.9 µM (inactive); in the experiment with UACC-62 it was 6.75 µM (inactive).

On to `COc1ccc(-n2c(=O)n(-c3ccccc3)c(=O)n2-c2ccc(OC)cc2)cc1`, for which the GI50 was > 100 µM (inactive) in the experiment on ACHN; > 100 µM (inactive) in the experiment with CCRF-CEM; > 100 µM (inactive) in the experiment with DU-145; > 100 µM (inactive) with HCC 2998; more than 100 µM in the experiment with HCT-15; 80.4 µM (inactive) with K562. The GI50 with MDA-MB-231, in the experiment on Malme-3M, with OVCAR-5, with OVCAR-8, with SK-MEL-5 and in the experiment on SNB-19 was > 100 µM (inactive) throughout. The GI50 in the experiment with SNB-75, with UACC-257 and in the experiment with UACC-62 was > 100 µM (inactive) throughout.

As to `CCC(C)C(NC(=O)C1CCCN1)C(=O)NC(C(=O)NCC(=O)NC(CC(N)=O)C(=O)NC(CC(C)C)C(=O)NC(CC(C)C)C(=O)NC(CCCCN)C(N)=O)C(C)C` (centres undefined) (H-PIVGNLLK-NH2; configuration not given here), the GI50 in the experiment on ACHN is > 75 µM (inactive); with CCRF-CEM it was > 75 µM (inactive); with DU-145 it was > 75 µM (inactive); in the experiment on HCT-15 it was more than 75 µM; with HT-29, > 75 µM (inactive); in the experiment on K562, > 75 µM (inactive). For the same molecule, the GI50 in the experiment with MDA-MB-231, in the experiment on Malme-3M, in the experiment on OVCAR-5, with OVCAR-8, with SK-MEL-5 and in the experiment with SNB-19 was > 75 µM (inactive) each time. Besides, the GI50 with UACC-257 and with UACC-62 was > 75 µM (inactive) in each case.
